Our source for the IC50 values is ChEMBL document CHEMBL1201862, “PubChem BioAssay data set” (2004).

Molecules are shown by their SMILES. Activity calls are given as the source filed them. Rule as the data show it: actives have a measured IC50 and inactives only a lower limit.

For the assay, the target named is Envelope glycoprotein gp160 (Human immunodeficiency virus 1, UniProt Q6QLK5). The experiment in a line: inhibitors of HIV fusion peptide binding, primary screen, biochemical, uHTS, fluorescence dequenching (AID 1986).
Sequence of Envelope glycoprotein gp160 (Q6QLK5 whole entry, the tested form may be a part): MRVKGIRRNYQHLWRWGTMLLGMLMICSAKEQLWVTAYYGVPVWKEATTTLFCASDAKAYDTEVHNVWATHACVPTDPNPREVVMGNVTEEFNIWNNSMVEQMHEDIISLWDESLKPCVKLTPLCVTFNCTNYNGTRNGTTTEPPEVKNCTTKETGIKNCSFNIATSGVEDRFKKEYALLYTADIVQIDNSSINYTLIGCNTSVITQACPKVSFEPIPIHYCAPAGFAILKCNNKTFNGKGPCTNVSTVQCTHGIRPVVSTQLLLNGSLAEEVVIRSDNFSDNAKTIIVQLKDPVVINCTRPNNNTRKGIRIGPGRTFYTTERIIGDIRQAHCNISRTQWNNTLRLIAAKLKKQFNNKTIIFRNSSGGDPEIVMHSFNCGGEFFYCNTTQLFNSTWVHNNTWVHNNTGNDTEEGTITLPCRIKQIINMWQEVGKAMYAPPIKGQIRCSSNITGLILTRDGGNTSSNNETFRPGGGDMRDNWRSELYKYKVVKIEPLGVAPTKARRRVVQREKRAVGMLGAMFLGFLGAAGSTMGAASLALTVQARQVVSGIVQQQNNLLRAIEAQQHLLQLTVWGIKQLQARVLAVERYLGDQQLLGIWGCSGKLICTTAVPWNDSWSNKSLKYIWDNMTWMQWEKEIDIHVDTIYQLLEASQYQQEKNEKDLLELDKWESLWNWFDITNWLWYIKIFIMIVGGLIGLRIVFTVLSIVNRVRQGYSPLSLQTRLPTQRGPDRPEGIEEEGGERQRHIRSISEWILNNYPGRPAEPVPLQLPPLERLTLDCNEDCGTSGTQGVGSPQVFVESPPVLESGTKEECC
Regarding `Nc1c(S(=O)(=O)O)cc(NC(=O)c2ccccc2)c2c1C(=O)c1ccccc1C2=O`, the 50% inhibitory concentration (IC50) (in general, the point on the concentration scale where inhibition reaches its midpoint) is 12.1 µM (active). The result for `O=C1N/C(=N\c2ccccc2Cl)S/C1=C\c1cccc([N+](=O)[O-])c1O` reads 22.1 µM (active). The result for `CCOc1cc(Br)cc(C(c2c(C(=O)O)[nH]c3ccccc23)c2c(C(=O)O)[nH]c3ccccc23)c1O` reads 5.92 µM (active); that for `CC(C)(C)OC(=O)N1CCC(c2cc(O)n3ncc(C(=O)Nc4ccc(F)c(Cl)c4)c3n2)CC1`, 82.2 µM (active).

For `Cc1ccc(-c2nn(-c3ccccc3)cc2/C=C2\SC(=S)N(CC(=O)O)C2=O)cc1`, the IC50 was 12.3 µM (active).
